Patent US7615210B2, “Treatment of endometriosis” (Medical Research Council, priority 2003, dated 2009)
Several values for one entry are separate records, joined by “and”; a condition that tells them apart may be missing. Equal entries are not always repeated.

Tested on: PK1 expression in endometrial tissue
Experiment: PK1 expression in endometrial tissue incubated with progesterone, Taqman quantitative RT-PCR
Assay type: cell-based, human
Details: endometrial tissue (n=5), 1 μM progesterone, 24 hours, control ethanol; mean ± SEM; p<0.05
Experimental: RNA was extracted from endometrial biopsies obtained from across the menstrual cycle (n=35) using Tri Reagent (Sigma, Poole, UK) following the Manufacturer's instructions. RNA samples were quantified and were reverse transcribed using 5.5 mmol 1^−1 MgCl2, 0.5 mmol 1^−1 of each deoxynucleotide triphosphate (dNTP), 2.5 μmol 1^−1 random hexamers, ribonuclease inhibitor (0.4 U μl^−1) and 1.25 U μl^−1 Multiscribe reverse transcriptase (all from Applied Biosystems, Warrington, UK). RNA (400 ng) was added to each reverse transcription reaction and samples were incubated for 90 minutes at 25° C., 45 minutes at 48° C. and 5 minutes at 95° C. The reaction mix for the polymerase chain reaction (PCR) consisted of 1× mastermix, ribosomal 18S forward and reverse primers, Ribosomal 18S probe (50 nmol 1^−1; all from Applied Biosystems, Warrington, UK), forward and reverse primers for PK1, PK2, PKR1 and PKR2 (300 nmol 1^−1) and their probes (200 nmol 1^−1) (all from Biosource UK, Nivelles, Belgium). The reaction mix (48 μl) was aliquoted into tubes and 2 μl cDNA was added. Duplicate 24 μl samples plus positive and negative controls were placed in a PCR plate and wells were sealed with optical caps. […] Data were analysed and processed using Sequence Detector version 1.6.3 (Applied Biosystems, Warrington, UK) according to manufacturer's instructions. […]

CC(=O)[C@H]1CC[C@H]2[C@@H]3CCC4=CC(=O)CC[C@]4(C)[C@H]3CC[C@]12C [progesterone]
fold increase in PK1 expression compared with controls: 2.91 fold and 2.91(±0.75) fold
